{
  "source": "patent US20250066371A1",
  "about": "“FLUOROALKOXYALKYLENE-DIHYDROIMIDAZO[5,1-D]TETRAZINONE COMPOUNDS AND RELATED COMPOUNDS AND THEIR USE IN TREATING MEDICAL CONDITIONS” (priority 2023, published 2025)",
  "assay_in_all_cases": "Cell panel nuclear dye assay",
  "assay_type_in_all_cases": "cell-based",
  "key": {"SW48": {"system": "SW48", "settings": "Homo sapiens, 120 h, Colon, 5-day incubation", "description": "(§1) Cells were grown in RPMI1640, 10% FBS, 2 mM L-alanyl-L-glutamine, 1 mM Na pyruvate, or a special medium. Cells were seeded into 384-well plates and incubated in a humidified atmosphere of 5% CO2 at 37° C. Compound was added the day following cell seeding. At the same time, a time zero untreated cell plate was generated. After a 5-day incubation period, cells were fixed and stained to allow fluorescence imaging of nuclei.\n(§2) Compounds were serially diluted in 2-fold steps from the highest test concentration specified, and assayed over 10 concentrations with a maximum assay concentration of 0.1% DMSO. Automated fluorescence microscopy was carried out using a Molecular Devices ImageXpress Micro XL high-content imager, and images were collected with a 4× objective. 16-bit TIFF images were acquired and analyzed with MetaXpress 5.1.0.41 software.\n(§3) Cell proliferation was measured by the fluorescence intensity of an incorporated nuclear dye. The output is referred to as the relative cell count, where the measured nuclear intensity is transformed to percent of control (POC) using the following formula: […]\n(§4) Cell count IC50 is the test compound concentration at 50% of maximal possible response. EC50 is the test compound concentration at the curve inflection point or half the effective response (parameter C of the fitted curve solution). GI50 is the concentration needed to reduce the observed growth by half (midway between the curve maximum and the time zero value). Activity area is an estimate of the integrated area above the curve. Activity area values range from 0-10, where a value of zero indicates no inhibition of proliferation at all concentrations, and a value of 10 indicates complete inhibition of proliferation at all concentrations. In rare instances, values <0 or >10 may be observed. In these instances, values <0 should be considered as equivalent to 0, whereas values >10 should be considered equivalent to 10."}, "DBTRG-05MG": {"system": "DBTRG-05MG", "settings": "Homo sapiens, 120 h, Glioma (glioblastoma multiforme), 5-day incubation", "description": "as §1, §2, §3, §4"}, "BC-1": {"system": "BC-1", "settings": "Homo sapiens, BC1, 120 h, Lymphoma (B-cell), 5-day incubation", "description": "as §1, §2, §3, §4"}, "A-253": {"system": "A-253", "settings": "Homo sapiens, A253, 120 h, Head & neck (epidermoid carcinoma, salivary gland), 5-day incubation", "description": "as §1, §2, §3, §4"}, "NCI-H661": {"system": "NCI-H661", "settings": "Homo sapiens, 120 h, Lung (NSCLC), 5-day incubation", "description": "as §1, §2, §3, §4"}, "SW620": {"system": "SW620", "settings": "Homo sapiens, SW-620, 120 h, Colon, 5-day incubation", "description": "as §1, §2, §3, §4"}, "WM-266-4": {"system": "WM-266-4", "settings": "Homo sapiens, 120 h, Melanoma, 5-day incubation", "description": "as §1, §2, §3, §4"}, "DB": {"system": "DB", "settings": "Homo sapiens, 120 h, Lymphoma (B-cell), 5-day incubation", "description": "as §1, §2, §3, §4"}, "SK-N-AS": {"system": "SK-N-AS", "settings": "Homo sapiens, 120 h, Neuroblastoma, 5-day incubation", "description": "as §1, §2, §3, §4"}, "OE21": {"system": "OE21", "settings": "120 h, Head & neck (squamous cell carcinoma, esophagus), 5-day incubation", "description": "as §1, §2, §3, §4"}, "SCC-9": {"system": "SCC-9", "settings": "Homo sapiens, 120 h, Head & neck (squamous cell carcinoma, tongue), 5-day incubation", "description": "as §1, §2, §3, §4"}, "MT-3": {"system": "MT-3", "settings": "120 h, Colon, 5-day incubation", "description": "as §1, §2, §3, §4"}, "Jiyoye": {"system": "Jiyoye", "settings": "Homo sapiens, 120 h, Lymphoma (Burkitt's), 5-day incubation", "description": "as §1, §2, §3, §4"}, "SW1783": {"system": "SW1783", "settings": "Homo sapiens, 120 h, Glioma (astrocytoma), 5-day incubation", "description": "as §1, §2, §3, §4"}, "A101D": {"system": "A101D", "settings": "Homo sapiens, 120 h, Melanoma, 5-day incubation", "description": "as §1, §2, §3, §4"}, "NCI-H69": {"system": "NCI-H69", "settings": "Homo sapiens, 120 h, Lung (SCLC), 5-day incubation", "description": "as §1, §2, §3, §4"}, "M059J": {"system": "M059J", "settings": "Homo sapiens, 120 h, Glioma (glioblastoma), 5-day incubation", "description": "as §1, §2, §3, §4"}, "MeWo": {"system": "MeWo", "settings": "Homo sapiens, 120 h, Melanoma, 5-day incubation", "description": "as §1, §2, §3, §4"}, "KHOS-240S": {"system": "KHOS-240S", "settings": "120 h, Osteosarcoma, 5-day incubation", "description": "as §1, §2, §3, §4"}, "U-87 MG": {"system": "U-87 MG", "settings": "Homo sapiens, 120 h, Glioma (glioblastoma), 5-day incubation", "description": "as §1, §2, §3, §4"}, "T24": {"system": "T24", "settings": "Homo sapiens, T-24, 120 h, Bladder, 5-day incubation", "description": "as §1, §2, §3, §4"}, "BFTC-905": {"system": "BFTC-905", "settings": "Homo sapiens, 120 h, Bladder, 5-day incubation", "description": "as §1, §2, §3, §4"}, "C32TG": {"system": "C32TG", "settings": "120 h, Melanoma, 5-day incubation", "description": "as §1, §2, §3, §4"}, "5637": {"system": "5637", "settings": "120 h, Bladder, 5-day incubation", "description": "as §1, §2, §3, §4"}},
  "data": [
    {"smiles": "NC(=O)c1ncn2c(=O)n(CCOC(F)(F)F)nnc12", "note": "[Compound I-1, 4-Oxo-3-(2-(trifluoromethoxy)ethyl)-3,4-dihydroimidazo[5,1-d][1,2,3,5]tetrazine-8-carboxamide]", "values": [
      {"measurement": "EC50", "setting": "SW48", "result": "≤ 30", "unit": "µM"},
      {"measurement": "IC50", "setting": "SW48", "result": "≤ 30", "unit": "µM"},
      {"measurement": "EC50", "setting": "DBTRG-05MG", "result": "≤ 30", "unit": "µM"},
      {"measurement": "IC50", "setting": "DBTRG-05MG", "result": "≤ 30", "unit": "µM"},
      {"measurement": "EC50", "setting": "BC-1", "result": "≤ 30", "unit": "µM"},
      {"measurement": "IC50", "setting": "BC-1", "result": "≤ 30", "unit": "µM"},
      {"measurement": "EC50", "setting": "A-253", "result": "70 to 150", "unit": "µM"},
      {"measurement": "IC50", "setting": "A-253", "result": "70 to 150", "unit": "µM"},
      {"measurement": "EC50", "setting": "NCI-H661", "result": "≤ 30", "unit": "µM"},
      {"measurement": "IC50", "setting": "NCI-H661", "result": "> 150", "unit": "µM"},
      {"measurement": "EC50", "setting": "SW620", "result": "70 to 150", "unit": "µM"},
      {"measurement": "IC50", "setting": "SW620", "result": "70 to 150", "unit": "µM"},
      {"measurement": "EC50", "setting": "WM-266-4", "result": "30 to 70", "unit": "µM"},
      {"measurement": "IC50", "setting": "WM-266-4", "result": "30 to 70", "unit": "µM"},
      {"measurement": "EC50", "setting": "DB", "result": "≤ 30", "unit": "µM"},
      {"measurement": "IC50", "setting": "DB", "result": "30 to 70", "unit": "µM"},
      {"measurement": "EC50", "setting": "SK-N-AS", "result": "> 150", "unit": "µM"},
      {"measurement": "IC50", "setting": "SK-N-AS", "result": "> 150", "unit": "µM"},
      {"measurement": "EC50", "setting": "OE21", "result": "30 to 70", "unit": "µM"},
      {"measurement": "IC50", "setting": "OE21", "result": "30 to 70", "unit": "µM"},
      {"measurement": "EC50", "setting": "SCC-9", "result": "70 to 150", "unit": "µM"},
      {"measurement": "IC50", "setting": "SCC-9", "result": "70 to 150", "unit": "µM"},
      {"measurement": "EC50", "setting": "MT-3", "result": "≤ 30", "unit": "µM"},
      {"measurement": "IC50", "setting": "MT-3", "result": "≤ 30", "unit": "µM"},
      {"measurement": "EC50", "setting": "Jiyoye", "result": "30 to 70", "unit": "µM"},
      {"measurement": "IC50", "setting": "Jiyoye", "result": "30 to 70", "unit": "µM"},
      {"measurement": "EC50", "setting": "SW1783", "result": "70 to 150", "unit": "µM"},
      {"measurement": "IC50", "setting": "SW1783", "result": "70 to 150", "unit": "µM"},
      {"measurement": "EC50", "setting": "A101D", "result": "≤ 30", "unit": "µM"},
      {"measurement": "IC50", "setting": "A101D", "result": "≤ 30", "unit": "µM"},
      {"measurement": "EC50", "setting": "NCI-H69", "result": "≤ 30", "unit": "µM"},
      {"measurement": "IC50", "setting": "NCI-H69", "result": "≤ 30", "unit": "µM"},
      {"measurement": "EC50", "setting": "M059J", "result": "30 to 70", "unit": "µM"},
      {"measurement": "IC50", "setting": "M059J", "result": "30 to 70", "unit": "µM"},
      {"measurement": "EC50", "setting": "MeWo", "result": "> 150", "unit": "µM"},
      {"measurement": "IC50", "setting": "MeWo", "result": "> 150", "unit": "µM"},
      {"measurement": "EC50", "setting": "KHOS-240S", "result": "> 150", "unit": "µM"},
      {"measurement": "IC50", "setting": "KHOS-240S", "result": "> 150", "unit": "µM"},
      {"measurement": "EC50", "setting": "U-87 MG", "result": "30 to 70", "unit": "µM"},
      {"measurement": "IC50", "setting": "U-87 MG", "result": "70 to 150", "unit": "µM"},
      {"measurement": "EC50", "setting": "T24", "result": "30 to 70", "unit": "µM"},
      {"measurement": "IC50", "setting": "T24", "result": "> 150", "unit": "µM"},
      {"measurement": "EC50", "setting": "BFTC-905", "result": "30 to 70", "unit": "µM"},
      {"measurement": "IC50", "setting": "BFTC-905", "result": "30 to 70", "unit": "µM"},
      {"measurement": "EC50", "setting": "C32TG", "result": "≤ 30", "unit": "µM"},
      {"measurement": "IC50", "setting": "C32TG", "result": "≤ 30", "unit": "µM"},
      {"measurement": "EC50", "setting": "5637", "result": "30 to 70", "unit": "µM"},
      {"measurement": "IC50", "setting": "5637", "result": "30 to 70", "unit": "µM"}
    ]}
  ]
}
